# Results published in the supplement of paper PMC9663587.
# Legend:
# [1] = compound: CCc1cnn2c(NCc3ccc[n+]([O-])c3)cc(N3CCCC[C@H]3CCO)nc12; assay: increase in dead-cell fraction, 72 h; higher = more death;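 further: breast cancer cell lines in 384-well plates, stained with Hoechst plus LIVE/DEAD far red dye and imaged, cells above an LDR intensity threshold counted dead, Hoechst-negative corpses included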
# Neratinib/HKI272 = compound: CCOc1cc2ncc(C#N)c(Nc3ccc(OCc4ccccn4)c(Cl)c3)c2cc1NC(=O)/C=C/CN(C)C [Neratinib/HKI272]; assay: as above
# [2] = compound: CCN1CCN(Cc2ccc(Nc3ncc(F)c(-c4cc(F)c5nc(C)n(C(C)C)c5c4)n3)nc2)CC1; assay: as above
# [3] = compound: CC(=O)c1c(C)c2cnc(Nc3ccc(N4CCNCC4)cn3)nc2n(C2CCCC2)c1=O; assay: as above
# Doxorubicin = compound: COc1cccc2c1C(=O)c1c(O)c3c(c(O)c1C2=O)C[C@@](O)(C(=O)CO)C[C@@H]3O[C@H]1C[C@H](N)[C@H](O)[C@H](C)O1 [Doxorubicin]
# [4] = compound: CCc1cnn2c(NCc3ccc[n+]([O-])c3)cc(N3CCCC[C@H]3CCO)nc12
# [5] = compound: Cc1nn(C)c(COc2ccc(N3CCN(S(=O)(=O)N(C)C)CC3)cc2)c1-c1cccc2c(CCCOc3cccc4ccccc34)c(C(=O)O)n(CCN3CCOCC3)c12
# Pictilisib/GDC0941 = compound: CS(=O)(=O)N1CCN(Cc2cc3nc(-c4cccc5[nH]ncc45)nc(N4CCOCC4)c3s2)CC1 [Pictilisib/GDC0941]
# Ceritinib/LDK378 = compound: Cc1cc(Nc2ncc(Cl)c(Nc3ccccc3S(=O)(=O)C(C)C)n2)c(OC(C)C)cc1C1CCNCC1 [Ceritinib/LDK378]
# THZ531 = compound: CN(C)C/C=C/C(=O)Nc1ccc(C(=O)N2CCC[C@@H](Nc3ncc(Cl)c(-c4c[nH]c5ccccc45)n3)C2)cc1 [THZ531]; assay: increase in dead-cell fraction, 72 h; higher = more death;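 further: breast cancer cell lines in 384-well plates, stained with Hoechst plus LIVE/DEAD far red dye and imaged, cells above an LDR intensity threshold counted dead, Hoechst-negative corpses included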
# LEE011/Ribociclib [6] = compound: T1, CN(C)C(=O)c1cc2cnc(Nc3ccc(N4CCNCC4)cn3)nc2n1C1CCCC1 [LEE011/Ribociclib]; assay: as above
# THZ1 = compound: CN(C)C/C=C/C(=O)Nc1ccc(C(=O)Nc2cccc(Nc3ncc(Cl)c(-c4c[nH]c5ccccc45)n3)c2)cc1 [THZ1]; assay: as above
# YKL-5-124 = compound: C=CC(=O)Nc1ccc(C(=O)Nc2[nH]nc3c2CN(C(=O)N[C@H](CN(C)C)c2ccccc2)C3(C)C)cc1 [YKL-5-124]; assay: as above
# Flavopiridol = compound: CN1CC[C@H](c2c(O)cc(O)c3c(=O)cc(-c4ccccc4Cl)oc23)[C@H](O)C1 [Flavopiridol]; assay: as above
# BSJ-03-123 = compound: CC(=O)c1c(C)c2cnc(Nc3ccc(N4CCN(CCOCCOCCOCCNC(=O)COc5cccc6c5C(=O)N(C5CCC(=O)NC5=O)C6=O)CC4)cn3)nc2n(C2CCCC2)c1=O [BSJ-03-123]; assay: as above
# LEE011/Ribociclib [7] = compound: T1, LEE011/Ribociclib
# 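Wherever GR50, 72 h is given: breast cancer and non-malignant breast epithelial cell lines, Deep Dye Drop or Dye Drop imaging, nine half-log doses, GR normalized to time-zero plates and DMSO-only controls.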
cell line,measurement,setting,value
MDAMB157,increase in dead-cell fraction,[1]; 0.0001 µM,0
same,increase in dead-cell fraction,[1]; 0.0003162 µM,-0.0024
same,increase in dead-cell fraction,[1]; 0.001 µM,0.0008
same,increase in dead-cell fraction,[1]; 0.003162 µM,0.0027
same,increase in dead-cell fraction,[1]; 0.01 µM,0.028
same,increase in dead-cell fraction,[1]; 0.03162 µM,0.41
same,increase in dead-cell fraction,[1]; 0.1 µM,0.781
same,increase in dead-cell fraction,[1]; 0.3162 µM,0.834
same,increase in dead-cell fraction,[1]; 1 µM,0.851
same,increase in dead-cell fraction,Neratinib/HKI272; 0.0003162 µM,0.0012
same,increase in dead-cell fraction,Neratinib/HKI272; 0.001 µM,0.0066
same,increase in dead-cell fraction,Neratinib/HKI272; 0.003162 µM,0.004
same,increase in dead-cell fraction,Neratinib/HKI272; 0.01 µM,-0.0008
same,increase in dead-cell fraction,Neratinib/HKI272; 0.03162 µM,0.0016
same,increase in dead-cell fraction,Neratinib/HKI272; 0.1 µM,-0.0006
same,increase in dead-cell fraction,Neratinib/HKI272; 0.3162 µM,0.0073
same,increase in dead-cell fraction,Neratinib/HKI272; 1 µM,-0.0005
same,increase in dead-cell fraction,Neratinib/HKI272; 3.162 µM,0.032
same,increase in dead-cell fraction,[2]; 0.001 µM,-0.0027
same,increase in dead-cell fraction,[2]; 0.003162 µM,-0.0032
same,increase in dead-cell fraction,[2]; 0.01 µM,-0.0032
same,increase in dead-cell fraction,[2]; 0.03162 µM,0.0011
same,increase in dead-cell fraction,[2]; 0.1 µM,0.0051
same,increase in dead-cell fraction,[2]; 0.3162 µM,0.0141
same,increase in dead-cell fraction,[2]; 1 µM,0.0387
same,increase in dead-cell fraction,[2]; 3.162 µM,0.0737
same,increase in dead-cell fraction,[2]; 10 µM,0.48
same,increase in dead-cell fraction,[3]; 0.0003162 µM,0.0033
same,increase in dead-cell fraction,[3]; 0.001 µM,0.0064
same,increase in dead-cell fraction,[3]; 0.003162 µM,0.0023
same,increase in dead-cell fraction,[3]; 0.01 µM,0.0015
same,increase in dead-cell fraction,[3]; 0.03162 µM,0.0013
same,increase in dead-cell fraction,[3]; 0.1 µM,0.0006
same,increase in dead-cell fraction,[3]; 0.3162 µM,-0.002
same,increase in dead-cell fraction,[3]; 1 µM,-0.0042
same,increase in dead-cell fraction,[3]; 3.162 µM,-0.0011
same,"GR50, 72 h",Doxorubicin,0.00323 µM
same,"GR50, 72 h",[4],0.0177 µM
same,"GR50, 72 h",[5],> 10 µM
same,"GR50, 72 h",Pictilisib/GDC0941,2.05 µM
same,"GR50, 72 h",Ceritinib/LDK378,0.484 µM
PDX1206,increase in dead-cell fraction,THZ531; 0.0001 µM,-0.0011
same,increase in dead-cell fraction,THZ531; 0.0003162 µM,0.0053
same,increase in dead-cell fraction,THZ531; 0.001 µM,-0.0065
same,increase in dead-cell fraction,THZ531; 0.003162 µM,-0.0032
same,increase in dead-cell fraction,THZ531; 0.01 µM,-0.0015
same,increase in dead-cell fraction,THZ531; 0.03162 µM,-0.0072
same,increase in dead-cell fraction,THZ531; 0.1 µM,0.347
same,increase in dead-cell fraction,THZ531; 0.3162 µM,0.257
same,increase in dead-cell fraction,THZ531; 1 µM,0.344
same,increase in dead-cell fraction,LEE011/Ribociclib [6]; 0.001 µM,-0.0167
same,increase in dead-cell fraction,LEE011/Ribociclib [6]; 0.003162 µM,-0.0241
same,increase in dead-cell fraction,LEE011/Ribociclib [6]; 0.01 µM,0.009
same,increase in dead-cell fraction,LEE011/Ribociclib [6]; 0.03162 µM,-0.0043
same,increase in dead-cell fraction,LEE011/Ribociclib [6]; 0.1 µM,-0.0009
same,increase in dead-cell fraction,LEE011/Ribociclib [6]; 0.3162 µM,0.0111
same,increase in dead-cell fraction,LEE011/Ribociclib [6]; 1 µM,-0.0007
same,increase in dead-cell fraction,LEE011/Ribociclib [6]; 3.162 µM,0.0201
same,increase in dead-cell fraction,LEE011/Ribociclib [6]; 10 µM,0.0115
same,increase in dead-cell fraction,THZ1; 0.0001 µM,-0.0189
same,increase in dead-cell fraction,THZ1; 0.0003162 µM,0.0062
same,increase in dead-cell fraction,THZ1; 0.001 µM,-0.0104
same,increase in dead-cell fraction,THZ1; 0.003162 µM,-0.008
same,increase in dead-cell fraction,THZ1; 0.01 µM,-0.0089
same,increase in dead-cell fraction,THZ1; 0.03162 µM,0.0587
same,increase in dead-cell fraction,THZ1; 0.1 µM,0.346
same,increase in dead-cell fraction,THZ1; 0.3162 µM,0.424
same,increase in dead-cell fraction,THZ1; 1 µM,0.513
same,increase in dead-cell fraction,YKL-5-124; 0.001 µM,-0.009
same,increase in dead-cell fraction,YKL-5-124; 0.003162 µM,-0.0048
same,increase in dead-cell fraction,YKL-5-124; 0.01 µM,0.0238
same,increase in dead-cell fraction,YKL-5-124; 0.03162 µM,0.0116
same,increase in dead-cell fraction,YKL-5-124; 0.1 µM,0.0307
same,increase in dead-cell fraction,YKL-5-124; 0.3162 µM,0.0443
same,increase in dead-cell fraction,YKL-5-124; 1 µM,0.0358
same,increase in dead-cell fraction,YKL-5-124; 3.162 µM,0.0858
same,increase in dead-cell fraction,YKL-5-124; 10 µM,0.484
same,increase in dead-cell fraction,Flavopiridol; 0.0001 µM,0.009
same,increase in dead-cell fraction,Flavopiridol; 0.0003162 µM,0.0115
same,increase in dead-cell fraction,Flavopiridol; 0.001 µM,0.0015
same,increase in dead-cell fraction,Flavopiridol; 0.003162 µM,0.0091
same,increase in dead-cell fraction,Flavopiridol; 0.01 µM,-0.0105
same,increase in dead-cell fraction,Flavopiridol; 0.03162 µM,0.0053
same,increase in dead-cell fraction,Flavopiridol; 0.1 µM,0.0408
same,increase in dead-cell fraction,Flavopiridol; 0.3162 µM,0.405
same,increase in dead-cell fraction,Flavopiridol; 1 µM,0.587
same,increase in dead-cell fraction,BSJ-03-123; 0.001 µM,-0.0047
same,increase in dead-cell fraction,BSJ-03-123; 0.003162 µM,-0.004
same,increase in dead-cell fraction,BSJ-03-123; 0.01 µM,-0.0083
same,increase in dead-cell fraction,BSJ-03-123; 0.03162 µM,-0.0021
same,increase in dead-cell fraction,BSJ-03-123; 0.1 µM,-0.0156
same,increase in dead-cell fraction,BSJ-03-123; 0.3162 µM,-0.0027
same,increase in dead-cell fraction,BSJ-03-123; 1 µM,-0.0025
same,increase in dead-cell fraction,BSJ-03-123; 3.162 µM,-0.0175
same,increase in dead-cell fraction,BSJ-03-123; 10 µM,0.217
same,"GR50, 72 h",LEE011/Ribociclib [7],> 10 µM
